# In patent US20080200337A1, “Mixed herbicide compositions for paddy field” (Bayer CropScience, priority 2007, published 2008):
# Key:
# Assay type in all cases: in vivo
# [1] = system: Cyperus serotinus Rottboel; assay: Weed control, flooded paddy field, treatment at 1 leaf-stage (Test Example 1); conditions: after 4 weeks
# Protocol: (§1) Carrier: 5 parts by weight of acetone
# (§2) Surfactant: one part by weight of benzyloxy polyglycol ether.
# (§3) Above described carrier and surfactant are mixed with one part by weight of the active compound ((a) ingredient and (b) ingredient) and the resulting preparation is then diluted with water to obtain given amount of the test drug (the formulation).
# (§4) In a greenhouse, seeds or tubers of Echinochloa, Scirpus juncoides Roxburgh, Monochoria vaginalis Presl, annual broad-leaved weeds (Lindernia procumbens Philcox, Lindernia dubia L. Penn., Rotala indica Koehne, Elatine triandra Schk, Ammannia multiflora Roxb.), Cyperus serotinus Rottboel and Sagittaria pygmaea Miq. were inoculated in a 500 cm^2 pot filled with paddy field soil. After 2 leaf-stage of rice were transplanted, water was poured to a depth of about 3 cm. At 1.0 leaf-stage of Echinochloa oryzicola Vasing, a prescribed, diluted solution of the formulation of each active compound and each herbicidal compound in the table was separately or simultaneously applied to the surface of water. After the treatment, the water depth of 3 cm was maintained, and herbicidal effect was examined after 4 weeks. In the assessment of the herbicidal effect and the phytotoxicity, 100% refers to complete death and 0% refers to no effect or no phytotoxicity.
# [2] = system: Echinochloa; assay: as above; conditions: after 4 weeks
# Protocol: as §1, §2, §3, §4
# [3] = system: Monochoria vaginalis Presl; assay: as above; conditions: after 4 weeks
# Protocol: as §1, §2, §3, §4
# [4] = system: Sagittaria pygmaea Miq.; assay: as above; conditions: after 4 weeks
# Protocol: as §1, §2, §3, §4
# [5] = system: Scirpus juncoides Roxburgh; assay: as above; conditions: after 4 weeks
# Protocol: as §1, §2, §3, §4
# [6] = system: annual broad-leaved weeds; assay: as above; conditions: after 4 weeks
# Protocol: as §1, §2, §3, §4
# [7] = system: transplanted rice; assay: Phytotoxicity, flooded paddy field, treatment at 1 leaf-stage (Test Example 1); conditions: treatment at 1 leaf-stage, after 4 weeks
# Protocol: as §1, §2, §3, §4
# [8] = system: Cyperus serotinus Rottboel; assay: Weed control, flooded paddy field, treatment at 3 leaf-stage (Test Example 2); conditions: after 4 weeks
# Protocol: as §1, §2, §3
# as §4, with “Echinochloa, Cyperus difformis L.,” for “Echinochloa,”, “3.0” for “1.0”, “Echinochloa,” for “Echinochloa oryzicola Vasing,”
# [9] = system: Echinochloa; assay: as above; conditions: after 4 weeks
# Protocol: as §1, §2, §3
# as §4, with “Echinochloa, Cyperus difformis L.,” for “Echinochloa,”, “3.0” for “1.0”, “Echinochloa,” for “Echinochloa oryzicola Vasing,”
# [10] = system: Monochoria vaginalis Presl; assay: as above; conditions: after 4 weeks
# Protocol: as §1, §2, §3
# as §4, with “Echinochloa, Cyperus difformis L.,” for “Echinochloa,”, “3.0” for “1.0”, “Echinochloa,” for “Echinochloa oryzicola Vasing,”
# [11] = system: Sagittaria pygmaea Miq.; assay: as above; conditions: after 4 weeks
# Protocol: as §1, §2, §3
# as §4, with “Echinochloa, Cyperus difformis L.,” for “Echinochloa,”, “3.0” for “1.0”, “Echinochloa,” for “Echinochloa oryzicola Vasing,”
# [12] = system: Scirpus juncoides Roxburgh; assay: as above; conditions: after 4 weeks
# Protocol: as §1, §2, §3
# as §4, with “Echinochloa, Cyperus difformis L.,” for “Echinochloa,”, “3.0” for “1.0”, “Echinochloa,” for “Echinochloa oryzicola Vasing,”
# [13] = system: annual broad-leaved weeds; assay: as above; conditions: after 4 weeks
# Protocol: as §1, §2, §3
# as §4, with “Echinochloa, Cyperus difformis L.,” for “Echinochloa,”, “3.0” for “1.0”, “Echinochloa,” for “Echinochloa oryzicola Vasing,”
# [14] = system: transplanted rice; assay: Phytotoxicity, flooded paddy field, treatment at 3 leaf-stage (Test Example 2); conditions: treatment at 3 leaf-stage, after 4 weeks
# Protocol: as §1, §2, §3
# as §4, with “Echinochloa, Cyperus difformis L.,” for “Echinochloa,”, “3.0” for “1.0”, “Echinochloa,” for “Echinochloa oryzicola Vasing,”
# [15] = system: Cyperus difformis L.; assay: Weed control by spray treatment at 1.5 to 3.0 leaf-stage (Test Example 3); conditions: spray at 1.5 to 3.0 leaf-stage, 4 weeks later
# Protocol: as §1, §2, §3
# (§5) In a greenhouse, seeds of rice (var.: Nipponbare and RD23) and weeds (Echinochloa oryzicola Vasing, Echinochloa cruss-galli, Leptochloa chinensis, Cyperus difformis L., Cyperus iria L., annual broad-leaved weeds (Monochoria vaginalis Presl, Lindernia procumbens Philcox, Lindernia dubia L. Penn., Rotala indica Koehne, Elatine triandra Schk, Ammannia multiflora Roxb. and the like)) were sown in a 500 cm^2 pot filled with paddy field soil and covered with soil. Water was added to the pot (a depth of 0 cm) to be a wet condition, and each test plant was grown in the greenhouse to 1.5 to 3.0 leaf-stage, after then a prescribed, diluted solution of the formulation of each active compound and each herbicidal compound in the table were separately or simultaneously sprayed over the pots with plants. At 3 days after the treatment, the water depth of 3 cm was maintained, and 4 weeks later, herbicidal effect was then examined. In the assessment of the herbicidal effect and the phytotoxicity, 100% refers to complete death and 0% refers to no effect or no phytotoxicity.
# [16] = system: Cyperus iria L.; assay: as above; conditions: spray at 1.5 to 3.0 leaf-stage, 4 weeks later
# Protocol: as §1, §2, §3, §5
# [17] = system: Echinochloa cruss-galli; assay: as above; conditions: spray at 1.5 to 3.0 leaf-stage, 4 weeks later
# Protocol: as §1, §2, §3, §5
# [18] = system: Echinochloa oryzicola Vasing; assay: as above; conditions: spray at 1.5 to 3.0 leaf-stage, 4 weeks later
# Protocol: as §1, §2, §3, §5
# [19] = system: Leptochloa chinensis; assay: as above; conditions: spray at 1.5 to 3.0 leaf-stage, 4 weeks later
# Protocol: as §1, §2, §3, §5
# [20] = system: Monochoria vaginalis Presl; assay: as above; conditions: spray at 1.5 to 3.0 leaf-stage, 4 weeks later
# Protocol: as §1, §2, §3, §5
# [21] = system: annual broad-leaved weeds; assay: as above; conditions: spray at 1.5 to 3.0 leaf-stage, 4 weeks later
# Protocol: as §1, §2, §3, §5
# [22] = system: submerged direct sown paddy (Nipponbare); assay: Phytotoxicity, spray treatment at 1.5 to 3.0 leaf-stage (Test Example 3); conditions: spray at 1.5 to 3.0 leaf-stage, 4 weeks later
# Protocol: as §1, §2, §3, §5
# [23] = system: submerged direct sown paddy (RD-23); assay: as above; conditions: spray at 1.5 to 3.0 leaf-stage, 4 weeks later, RD-23
# Protocol: as §1, §2, §3, §5
structure (smiles),measurement,setting,value
COc1nc(OC)nc(C(=O)c2cccc(F)c2N(C)S(=O)(=O)C(F)F)n1 [(a-1)],Herbicidal effect (%) CYPSEE,[1]; 30 g ai/ha,90%
same,Herbicidal effect (%) CYPSEE,[1]; 50 g ai/ha,93%
same,Herbicidal effect (%) ECHSS,[2]; 30 g ai/ha,93%
same,Herbicidal effect (%) ECHSS,[2]; 50 g ai/ha,95%
same,Herbicidal effect (%) MOOVP,[3]; 30 g ai/ha,25%
same,Herbicidal effect (%) MOOVP,[3]; 50 g ai/ha,47%
same,Herbicidal effect (%) SAGPY,[4]; 30 g ai/ha,70%
same,Herbicidal effect (%) SAGPY,[4]; 50 g ai/ha,90%
same,Herbicidal effect (%) SCPSS,[5]; 30 g ai/ha,85%
same,Herbicidal effect (%) SCPSS,[5]; 50 g ai/ha,87%
same,Herbicidal effect (%) BBBBB,[6]; 30 g ai/ha,25%
same,Herbicidal effect (%) BBBBB,[6]; 50 g ai/ha,45%
same,Phytotoxicity (%) ORYSP,[7]; 30 g ai/ha,0%
same,Phytotoxicity (%) ORYSP,[7]; 50 g ai/ha,0%
same,Herbicidal effect (%) CYPSEE,[8]; 30 g ai/ha,90%
same,Herbicidal effect (%) CYPSEE,[8]; 50 g ai/ha,90%
same,Herbicidal effect (%) ECHSS,[9]; 30 g ai/ha,90%
same,Herbicidal effect (%) ECHSS,[9]; 50 g ai/ha,90%
same,Herbicidal effect (%) MOOVP,[10]; 30 g ai/ha,20%
same,Herbicidal effect (%) MOOVP,[10]; 50 g ai/ha,45%
same,Herbicidal effect (%) SAGPY,[11]; 30 g ai/ha,70%
same,Herbicidal effect (%) SAGPY,[11]; 50 g ai/ha,73%
same,Herbicidal effect (%) SCPSS,[12]; 30 g ai/ha,80%
same,Herbicidal effect (%) SCPSS,[12]; 50 g ai/ha,83%
same,Herbicidal effect (%) BBBBB,[13]; 30 g ai/ha,21%
same,Herbicidal effect (%) BBBBB,[13]; 50 g ai/ha,30%
same,Phytotoxicity (%) ORYSP,[14]; 30 g ai/ha,0%
same,Phytotoxicity (%) ORYSP,[14]; 50 g ai/ha,0%
same,Herbicidal effect (%) CYPDI,[15]; 30 g ai/ha,100%
same,Herbicidal effect (%) CYPDI,[15]; 50 g ai/ha,100%
same,Herbicidal effect (%) CYPIR,[16]; 30 g ai/ha,100%
same,Herbicidal effect (%) CYPIR,[16]; 50 g ai/ha,100%
same,Herbicidal effect (%) ECHCG,[17]; 30 g ai/ha,100%
same,Herbicidal effect (%) ECHCG,[17]; 50 g ai/ha,100%
same,Herbicidal effect (%) ECHOR,[18]; 30 g ai/ha,100%
same,Herbicidal effect (%) ECHOR,[18]; 50 g ai/ha,100%
same,Herbicidal effect (%) LEFCH,[19]; 30 g ai/ha,75%
same,Herbicidal effect (%) LEFCH,[19]; 50 g ai/ha,90%
same,Herbicidal effect (%) MOOVP,[20]; 30 g ai/ha,85%
same,Herbicidal effect (%) MOOVP,[20]; 50 g ai/ha,85%
same,Herbicidal effect (%) BBBBB,[21]; 30 g ai/ha,70%
same,Herbicidal effect (%) BBBBB,[21]; 50 g ai/ha,70%
same,Phytotoxicity (%) ORYSW*^1,[22]; 30 g ai/ha,5%
same,Phytotoxicity (%) ORYSW*^1,[22]; 50 g ai/ha,10%
same,Phytotoxicity (%) ORYSW*^2,[23]; 30 g ai/ha,5%
same,Phytotoxicity (%) ORYSW*^2,[23]; 50 g ai/ha,10%
COc1nc(OC)nc(C(O)c2cccc(F)c2N(C)S(=O)(=O)C(F)F)n1 (centres unmarked) [(a-3)],Herbicidal effect (%) CYPSEE,[1]; 30 g ai/ha,90%
same,Herbicidal effect (%) CYPSEE,[1]; 50 g ai/ha,90%
same,Herbicidal effect (%) ECHSS,[2]; 30 g ai/ha,90%
same,Herbicidal effect (%) ECHSS,[2]; 50 g ai/ha,90%
same,Herbicidal effect (%) MOOVP,[3]; 30 g ai/ha,20%
same,Herbicidal effect (%) MOOVP,[3]; 50 g ai/ha,40%
same,Herbicidal effect (%) SAGPY,[4]; 30 g ai/ha,70%
same,Herbicidal effect (%) SAGPY,[4]; 50 g ai/ha,90%
same,Herbicidal effect (%) SCPSS,[5]; 30 g ai/ha,60%
same,Herbicidal effect (%) SCPSS,[5]; 50 g ai/ha,60%
same,Herbicidal effect (%) BBBBB,[6]; 30 g ai/ha,20%
same,Herbicidal effect (%) BBBBB,[6]; 50 g ai/ha,35%
same,Phytotoxicity (%) ORYSP,[7]; 30 g ai/ha,0%
same,Phytotoxicity (%) ORYSP,[7]; 50 g ai/ha,0%
same,Herbicidal effect (%) CYPSEE,[8]; 30 g ai/ha,90%
same,Herbicidal effect (%) CYPSEE,[8]; 50 g ai/ha,90%
same,Herbicidal effect (%) ECHSS,[9]; 30 g ai/ha,90%
same,Herbicidal effect (%) ECHSS,[9]; 50 g ai/ha,90%
same,Herbicidal effect (%) MOOVP,[10]; 30 g ai/ha,10%
same,Herbicidal effect (%) MOOVP,[10]; 50 g ai/ha,13%
same,Herbicidal effect (%) SAGPY,[11]; 30 g ai/ha,70%
same,Herbicidal effect (%) SAGPY,[11]; 50 g ai/ha,70%
same,Herbicidal effect (%) SCPSS,[12]; 30 g ai/ha,60%
same,Herbicidal effect (%) SCPSS,[12]; 50 g ai/ha,60%
same,Herbicidal effect (%) BBBBB,[13]; 30 g ai/ha,3%
same,Herbicidal effect (%) BBBBB,[13]; 50 g ai/ha,8%
same,Phytotoxicity (%) ORYSP,[14]; 30 g ai/ha,0%
same,Phytotoxicity (%) ORYSP,[14]; 50 g ai/ha,0%
same,Herbicidal effect (%) CYPDI,[15]; 30 g ai/ha,100%
same,Herbicidal effect (%) CYPDI,[15]; 50 g ai/ha,100%
same,Herbicidal effect (%) CYPIR,[16]; 30 g ai/ha,100%
same,Herbicidal effect (%) CYPIR,[16]; 50 g ai/ha,100%
same,Herbicidal effect (%) ECHCG,[17]; 30 g ai/ha,100%
same,Herbicidal effect (%) ECHCG,[17]; 50 g ai/ha,100%
same,Herbicidal effect (%) ECHOR,[18]; 30 g ai/ha,100%
same,Herbicidal effect (%) ECHOR,[18]; 50 g ai/ha,100%
same,Herbicidal effect (%) LEFCH,[19]; 30 g ai/ha,65%
same,Herbicidal effect (%) LEFCH,[19]; 50 g ai/ha,80%
same,Herbicidal effect (%) MOOVP,[20]; 30 g ai/ha,65%
same,Herbicidal effect (%) MOOVP,[20]; 50 g ai/ha,85%
same,Herbicidal effect (%) BBBBB,[21]; 30 g ai/ha,65%
same,Herbicidal effect (%) BBBBB,[21]; 50 g ai/ha,85%
same,Phytotoxicity (%) ORYSW*^1,[22]; 30 g ai/ha,0%
same,Phytotoxicity (%) ORYSW*^1,[22]; 50 g ai/ha,10%
same,Phytotoxicity (%) ORYSW*^2,[23]; 30 g ai/ha,0%
same,Phytotoxicity (%) ORYSW*^2,[23]; 50 g ai/ha,0%
